Results on one molecule are retold here after ChEMBL document CHEMBL3259563, “The discovery of potent and selective non-steroidal glucocorticoid receptor modulators, suitable for inhalation” (Bioorg Med Chem Lett, 2014).

≈ marks a conversion by molar mass, not a printed value.

The target of data set [1] is T1, Mineralocorticoid receptor (Homo sapiens, UniProt P08235).
T1 sequence (P08235 whole entry): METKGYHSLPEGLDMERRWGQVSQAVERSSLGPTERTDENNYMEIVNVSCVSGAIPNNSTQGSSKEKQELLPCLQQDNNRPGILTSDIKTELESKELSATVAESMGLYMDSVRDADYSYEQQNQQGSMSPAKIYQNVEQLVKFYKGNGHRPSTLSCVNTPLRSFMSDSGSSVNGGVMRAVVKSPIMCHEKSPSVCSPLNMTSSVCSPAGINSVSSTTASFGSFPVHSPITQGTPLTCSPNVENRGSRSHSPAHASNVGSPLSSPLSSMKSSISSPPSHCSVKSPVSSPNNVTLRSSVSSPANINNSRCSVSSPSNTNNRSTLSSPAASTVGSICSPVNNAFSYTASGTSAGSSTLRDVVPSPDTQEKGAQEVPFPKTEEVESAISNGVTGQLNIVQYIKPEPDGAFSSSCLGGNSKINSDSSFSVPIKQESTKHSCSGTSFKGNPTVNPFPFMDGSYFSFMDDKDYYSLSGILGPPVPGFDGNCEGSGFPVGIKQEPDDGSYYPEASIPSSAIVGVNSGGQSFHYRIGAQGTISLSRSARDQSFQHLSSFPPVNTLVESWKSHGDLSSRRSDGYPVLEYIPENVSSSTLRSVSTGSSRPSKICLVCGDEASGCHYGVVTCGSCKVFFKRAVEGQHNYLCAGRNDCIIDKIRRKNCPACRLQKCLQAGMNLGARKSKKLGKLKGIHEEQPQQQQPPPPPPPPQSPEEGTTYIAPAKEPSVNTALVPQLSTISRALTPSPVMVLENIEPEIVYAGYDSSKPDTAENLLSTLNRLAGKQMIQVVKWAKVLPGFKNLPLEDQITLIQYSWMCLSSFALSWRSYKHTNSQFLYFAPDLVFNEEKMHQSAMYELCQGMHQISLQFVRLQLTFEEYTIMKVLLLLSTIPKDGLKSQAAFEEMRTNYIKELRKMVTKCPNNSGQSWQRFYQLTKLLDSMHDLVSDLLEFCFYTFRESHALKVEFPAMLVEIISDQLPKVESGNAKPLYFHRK
In words: Binding affinity to mineralocorticoid receptor (unknown origin).

Another data set addresses Cytochrome P450 2C9 (Homo sapiens, UniProt P11712). Kind of data set: Inhibition of CYP2C9 (unknown origin). Format: ADME.
The target of the next data set is T2, Progesterone receptor (Homo sapiens, UniProt P06401).
T2 sequence (P06401 whole entry): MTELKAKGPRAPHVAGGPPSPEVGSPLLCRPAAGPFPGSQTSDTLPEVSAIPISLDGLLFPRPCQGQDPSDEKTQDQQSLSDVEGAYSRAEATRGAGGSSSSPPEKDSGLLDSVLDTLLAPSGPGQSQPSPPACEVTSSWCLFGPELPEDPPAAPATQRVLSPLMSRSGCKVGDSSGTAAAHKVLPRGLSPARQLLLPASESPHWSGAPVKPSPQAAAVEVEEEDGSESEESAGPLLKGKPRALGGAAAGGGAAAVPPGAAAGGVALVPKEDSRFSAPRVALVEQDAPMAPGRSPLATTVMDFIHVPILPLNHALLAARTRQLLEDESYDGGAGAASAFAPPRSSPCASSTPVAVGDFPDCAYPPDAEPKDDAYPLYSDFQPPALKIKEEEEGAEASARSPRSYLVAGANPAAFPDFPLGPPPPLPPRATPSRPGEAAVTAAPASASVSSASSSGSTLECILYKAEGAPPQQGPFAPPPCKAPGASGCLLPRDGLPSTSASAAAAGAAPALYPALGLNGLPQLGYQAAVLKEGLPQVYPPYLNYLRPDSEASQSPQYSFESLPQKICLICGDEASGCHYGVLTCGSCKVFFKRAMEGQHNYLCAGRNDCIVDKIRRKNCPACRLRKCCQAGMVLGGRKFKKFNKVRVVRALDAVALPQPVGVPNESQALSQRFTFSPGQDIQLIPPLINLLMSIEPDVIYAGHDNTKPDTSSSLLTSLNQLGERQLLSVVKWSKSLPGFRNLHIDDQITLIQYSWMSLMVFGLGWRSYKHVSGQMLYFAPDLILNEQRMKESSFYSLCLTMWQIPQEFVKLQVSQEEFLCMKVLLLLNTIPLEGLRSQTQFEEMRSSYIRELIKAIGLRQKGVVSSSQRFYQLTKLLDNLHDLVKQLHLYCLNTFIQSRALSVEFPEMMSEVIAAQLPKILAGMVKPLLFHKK
In words: Binding affinity to progesterone receptor (unknown origin).

Data set [2] can be described thus: Half life in iv dosed rat. As to conditions: in vivo. The format is ADME, organism-based.
A further data set has as its target Estrogen receptor beta (Homo sapiens, UniProt Q92731). Kind of data set: Binding affinity to ER-beta (unknown origin).
Data set [3] can be described thus: Thermodynamic solubility of the amorphous compound in 0.1 M phosphate buffer at pH 7.4 at 25 degC after 24 hrs. Format: physicochemical. The note with it: read-out: Therm_solubility.
A further data set deals with Cytochrome P450 2C19 (Homo sapiens, UniProt P33261). Kind of data set: Inhibition of CYP2C19 (unknown origin). Format: ADME.
Sequence of Cytochrome P450 2C19 (P33261 whole entry): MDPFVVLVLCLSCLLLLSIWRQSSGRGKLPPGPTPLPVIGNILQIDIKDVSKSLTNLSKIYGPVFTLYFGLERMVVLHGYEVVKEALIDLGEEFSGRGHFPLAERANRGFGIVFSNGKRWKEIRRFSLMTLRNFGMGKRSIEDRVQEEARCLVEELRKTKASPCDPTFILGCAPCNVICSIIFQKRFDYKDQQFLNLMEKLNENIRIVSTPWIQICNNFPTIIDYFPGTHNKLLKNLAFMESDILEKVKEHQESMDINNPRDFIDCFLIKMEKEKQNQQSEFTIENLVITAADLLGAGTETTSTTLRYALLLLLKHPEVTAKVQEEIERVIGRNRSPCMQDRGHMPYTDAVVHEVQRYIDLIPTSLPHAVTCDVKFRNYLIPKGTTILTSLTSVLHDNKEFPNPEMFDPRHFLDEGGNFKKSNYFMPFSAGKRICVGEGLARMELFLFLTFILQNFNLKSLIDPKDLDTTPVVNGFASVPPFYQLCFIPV
The next data set relates to Lung. Kind of data set: Drug uptake in intratracheally dosed rat lung after 4 hrs. The format is ADME, organism-based. As to conditions: in vivo, inhaled_or_intranasal.
A further data set relates to Hepatocyte. Kind of data set: Intrinsic clearance in human hepatocytes. Format: ADME, cell-based.
A short description of data set [4]: Lipophilicity, log D of the compound at pH 7.4. The format is physicochemical. The note with it: buffer.
Another data set deals with Plasma. In words: Fraction unbound in human plasma. The format is ADME, cell-free.

Sequence of Estrogen receptor beta (Q92731 whole entry): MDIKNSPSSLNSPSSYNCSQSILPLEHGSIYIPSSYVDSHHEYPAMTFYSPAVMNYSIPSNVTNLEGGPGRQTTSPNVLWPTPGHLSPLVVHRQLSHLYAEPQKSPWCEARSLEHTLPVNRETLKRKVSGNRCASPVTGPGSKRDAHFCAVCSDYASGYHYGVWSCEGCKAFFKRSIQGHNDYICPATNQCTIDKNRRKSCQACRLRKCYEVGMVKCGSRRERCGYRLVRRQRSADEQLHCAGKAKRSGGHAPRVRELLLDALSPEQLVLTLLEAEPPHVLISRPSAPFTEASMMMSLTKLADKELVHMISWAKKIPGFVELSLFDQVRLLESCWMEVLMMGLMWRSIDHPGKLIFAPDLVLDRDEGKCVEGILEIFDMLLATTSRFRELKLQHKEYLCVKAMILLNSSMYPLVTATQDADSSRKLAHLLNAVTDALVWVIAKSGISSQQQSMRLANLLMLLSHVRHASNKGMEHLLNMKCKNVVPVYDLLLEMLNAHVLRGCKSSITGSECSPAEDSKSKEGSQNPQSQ
Sequence of Cytochrome P450 2C9 (P11712 whole entry): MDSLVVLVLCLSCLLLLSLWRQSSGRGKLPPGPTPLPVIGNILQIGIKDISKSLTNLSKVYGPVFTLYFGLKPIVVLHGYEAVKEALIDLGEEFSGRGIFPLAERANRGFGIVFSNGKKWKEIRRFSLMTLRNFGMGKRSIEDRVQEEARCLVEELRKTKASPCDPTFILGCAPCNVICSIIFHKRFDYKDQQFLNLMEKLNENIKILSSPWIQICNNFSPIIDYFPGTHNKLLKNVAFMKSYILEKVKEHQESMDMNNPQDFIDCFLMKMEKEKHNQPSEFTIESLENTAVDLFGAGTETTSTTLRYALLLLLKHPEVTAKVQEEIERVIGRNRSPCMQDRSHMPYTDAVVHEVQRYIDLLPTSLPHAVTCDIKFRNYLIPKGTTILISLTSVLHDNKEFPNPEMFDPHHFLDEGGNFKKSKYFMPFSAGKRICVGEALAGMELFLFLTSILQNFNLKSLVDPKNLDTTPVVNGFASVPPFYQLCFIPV

Regarding `Cc1nn(C2CCCC2)c(C)c1S(=O)(=O)N[C@@H](C)CNc1cccc2c1cnn2-c1ccc(F)nc1`, the IC50 was above 5 µM in data set [1]; 17 µM against Cytochrome P450 2C9; 4.5 µM at Progesterone receptor; above 5 µM on Estrogen receptor beta; above 20 µM at Cytochrome P450 2C19. Also, the half-life in data set [2] is 6.4 h. In addition, the solubility thermodynamic at 24 h in [3] came to 22 µM (≈ 11.3 µg/mL). For the same molecule, the Drug uptake entry with Lung is listed as “Active”. In the data set on Hepatocyte, the CLH worked out at 47 µL/min. This molecule also displayed a log distribution coefficient (logD) in data set [4] of 3.7. The Fu in the data set with Plasma is given as 0.005%.

Usually IC50 stands for the point on the concentration scale where inhibition reaches its midpoint. Lower therefore signals greater potency in that assay. In general, half-life refers to the time needed for the level to fall by half in the phase considered. Low readings indicate rapid decline, high ones slow decline. The logD is the decadic logarithm of the distribution of all forms, ionised or not, between an organic phase and buffer at a given pH. High values mean higher lipophilicity, low ones lower lipophilicity.
